Measured values published in US9382228B2 (priority 2013, dated 2016).

Assays:
[1] = target: unphosphorylated c-KIT kinase (uKIT, Seq. ID no. 2) (Homo sapiens, UniProt P10721); test: biochemical; conditions: uKIT, enzymatic assay, ATP 2000 μM
Protocol: uKit kinase (Seq. ID No. 2) Assay
In this assay, the oxidation of NADH (thus the decrease at A340 nm) was continuously monitored spectrophometrically. […] The inhibition reaction was started by mixing serial diluted test compound with the above reaction mixture. The absorption at 340 nm was monitored continuously for 4 hours at 30° C. on Synergy 2 plate reader (BioTech).

M-NFS-60 cells = test: cells; conditions: 67 h, read-out: M-NFS-60 cell proliferation
Protocol: M-NFS-6 Cell Proliferation Assay
A serial dilution of test compound was dispensed into a 384-well black clear bottom plate (Corning, Corning, N.Y.). Two thousand five hundred cells were added per well in 50 μL complete growth medium. […] IC50 values were calculated from a series of percent inhibition values determined at a range of inhibitor concentrations using software routines as implemented in the GraphPad Prism software package.

[2] = target: T1, unphosphorylated c-FMS kinase (uFMS, Seq. ID no. 1) (Homo sapiens, UniProt P07333); test: biochemical; conditions: uFMS, enzymatic assay, ATP 500 μM
T1 sequence (P07333 538-972): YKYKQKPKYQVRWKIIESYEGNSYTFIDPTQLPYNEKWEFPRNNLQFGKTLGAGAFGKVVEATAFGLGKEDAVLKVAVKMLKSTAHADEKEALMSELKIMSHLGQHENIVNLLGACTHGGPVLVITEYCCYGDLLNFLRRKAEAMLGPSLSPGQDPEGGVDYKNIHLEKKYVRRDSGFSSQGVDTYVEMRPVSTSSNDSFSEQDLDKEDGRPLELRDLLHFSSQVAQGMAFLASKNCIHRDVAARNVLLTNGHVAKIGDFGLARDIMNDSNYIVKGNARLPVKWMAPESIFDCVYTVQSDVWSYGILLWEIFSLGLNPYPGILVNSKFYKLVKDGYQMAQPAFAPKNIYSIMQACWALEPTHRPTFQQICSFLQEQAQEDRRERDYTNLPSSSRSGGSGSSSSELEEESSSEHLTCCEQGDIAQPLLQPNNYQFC

[3] = test system: phospho-FMS in THP-1 cells; test: cells; conditions: Homo sapiens, THP-1, read-out: pFMS inhibition in THP-1 cells
[4] = target: unphosphorylated PDGFRβ kinase (uPDGFRβ, Seq. ID No. 3) (Homo sapiens, UniProt P09619); test: biochemical; conditions: uPDGFRb, enzymatic assay, ATP 500 μM
osteoclast precursors = test: cells; type: cell-based; conditions: read-out: Osteoclast assay

Chain of unphosphorylated PDGFRβ kinase (uPDGFRβ, Seq. ID No. 3) (P09619 557-1106): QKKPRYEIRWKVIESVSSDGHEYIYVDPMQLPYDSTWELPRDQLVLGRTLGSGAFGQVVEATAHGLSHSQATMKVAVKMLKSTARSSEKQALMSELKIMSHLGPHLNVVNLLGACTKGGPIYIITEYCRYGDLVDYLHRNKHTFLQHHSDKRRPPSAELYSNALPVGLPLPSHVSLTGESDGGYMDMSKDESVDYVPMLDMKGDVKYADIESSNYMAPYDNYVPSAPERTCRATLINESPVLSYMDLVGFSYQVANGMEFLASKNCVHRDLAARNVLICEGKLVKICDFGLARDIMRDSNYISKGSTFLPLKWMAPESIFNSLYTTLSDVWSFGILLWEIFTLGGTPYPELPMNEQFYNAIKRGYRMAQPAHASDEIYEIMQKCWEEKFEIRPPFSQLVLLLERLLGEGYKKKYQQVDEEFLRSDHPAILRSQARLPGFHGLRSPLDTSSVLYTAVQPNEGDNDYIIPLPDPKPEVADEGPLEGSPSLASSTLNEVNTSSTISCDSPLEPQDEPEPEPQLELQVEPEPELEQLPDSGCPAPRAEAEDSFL
Chain of unphosphorylated c-KIT kinase (uKIT, Seq. ID no. 2) (P10721 with tags, fused parts or gaps): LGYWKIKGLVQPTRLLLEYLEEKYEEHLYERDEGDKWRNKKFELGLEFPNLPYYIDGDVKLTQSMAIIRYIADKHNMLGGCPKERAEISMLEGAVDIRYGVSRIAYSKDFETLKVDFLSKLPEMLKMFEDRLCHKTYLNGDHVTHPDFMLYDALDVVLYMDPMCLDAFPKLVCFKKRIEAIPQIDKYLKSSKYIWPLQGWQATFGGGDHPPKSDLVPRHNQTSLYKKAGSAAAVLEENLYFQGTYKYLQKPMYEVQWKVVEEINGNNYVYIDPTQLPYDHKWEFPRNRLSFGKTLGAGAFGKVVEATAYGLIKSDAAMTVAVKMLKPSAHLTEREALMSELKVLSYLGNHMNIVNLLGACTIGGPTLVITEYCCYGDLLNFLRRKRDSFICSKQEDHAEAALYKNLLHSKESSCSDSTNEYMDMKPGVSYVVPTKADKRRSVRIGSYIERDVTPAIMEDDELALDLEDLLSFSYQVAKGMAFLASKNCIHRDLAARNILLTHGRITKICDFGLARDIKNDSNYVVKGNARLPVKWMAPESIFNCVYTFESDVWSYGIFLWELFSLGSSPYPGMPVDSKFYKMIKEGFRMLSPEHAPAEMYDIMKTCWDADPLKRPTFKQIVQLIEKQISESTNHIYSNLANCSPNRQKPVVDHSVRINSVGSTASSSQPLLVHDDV

IC50 [1] [nM]	IC50 [2] [nM]	IC50 [3] [nM]	IC50 [4] [nM]	IC50 (osteoclast precursors) [nM]	SMILES	IC50 (M-NFS-60 cells) [nM]
< 10	< 10	< 10	10 to 100	< 10	Cc1nc(NC(=O)NC(=O)C2CC3(CCC3)C2)ccc1Oc1ccnc(-c2cnn(C)c2)c1 [Example 32, N-((6-methyl-5-((2-(1-methyl-1H-pyrazol-4-yl)pyridin-4-yl)oxy)pyridin-2-yl)carbamoyl)spiro[3.3]heptane-2-carboxamide]	10 to 100
100 to 1000	< 10	10 to 100	10 to 100	10 to 100	Cc1cc(NC(=O)NC(=O)C2(C)CCOCC2)nc(C)c1Oc1ccnc(-c2cnn(C)c2)c1 [Example 165, N-((4,6-dimethyl-5-((2-(1-methyl-1H-pyrazol-4-yl)pyridin-4-yl)oxy)pyridin-2-yl)carbamoyl)-4-methyltetrahydro-2H-pyran-4-carboxamide]	10 to 100
100 to 1000	< 10	10 to 100	100 to 1000	< 10	Cn1cc(-c2cc(Oc3ccc(NC(=O)NC(=O)C(C)(C)C)nc3)ccn2)cn1 [Example 26, N-((5-((2-(1-methyl-1H-pyrazol-4-yl)pyridin-4-yl)oxy)pyridin-2-yl)carbamoyl)pivalamide]	< 10
> 1000	< 10	10 to 100	100 to 1000	10 to 100	COC1(C(=O)NC(=O)Nc2ccc(Oc3ccnc(-n4cnc(C)c4)c3)cn2)CCCC1 [Example 154, 1-methoxy-N-((5-((2-(4-methyl-1H-imidazol-1-yl)pyridin-4-yl)oxy)pyridin-2-yl)carbamoyl)cyclopentanecarboxamide]	10 to 100
> 1000	10 to 100	10 to 100	> 1000	100 to 1000	CCc1nc(NC(=O)NC(=O)C2(C)CCOCC2)ccc1Oc1ccnc(-c2cnn(C)c2)c1 [Example 167, N-((6-ethyl-5-((2-(1-methyl-1H-pyrazol-4-yl)pyridin-4-yl)oxy)pyridin-2-yl)carbamoyl)-4-methyltetrahydro-2H-pyran-4-carboxamide]	100 to 1000
10 to 100	< 10	10 to 100	< 10	10 to 100	Cn1cc(-c2cc(Oc3ccc(NC(=O)NC(=O)C45CC6CC(CC(C6)C4)C5)nc3)ccn2)cn1 [Example 38, N-((5-((2-(1-methyl-1H-pyrazol-4-yl)pyridin-4-yl)oxy)pyridin-2-yl)carbamoyl)adamantane-1-carboxamide]	10 to 100
< 10	< 10	< 10	10 to 100	< 10	Cc1nc(NC(=O)NC(=O)C2CC(C)(C)C2)ccc1Oc1ccnc(-c2cnn(C)c2)c1 [Example 13, 3,3-dimethyl-N-((6-methyl-5-((2-(1-methyl-1H-pyrazol-4-yl)pyridin-4-yl)oxy)pyridin-2-yl)carbamoyl)cyclobutanecarboxamide]	< 10
100 to 1000	< 10	10 to 100	100 to 1000	< 10	CCOC(C)(C)C(=O)NC(=O)Nc1ccc(Oc2ccnc(-c3cnn(C)c3)c2)c(C)n1 [Example 127, 2-ethoxy-2-methyl-N-((6-methyl-5-((2-(1-methyl-1H-pyrazol-4-yl)pyridin-4-yl)oxy)pyridin-2-yl)carbamoyl)propanamide]	10 to 100
> 1000	< 10	< 10	> 1000	10 to 100	CC(C)c1nc(-c2cc(Oc3ccc(NC(=O)NC(=O)C(C)(C)C)nc3)ccn2)c[nH]1 [Example 169, N-((5-((2-(2-isopropyl-1H-imidazol-4-yl)pyridin-4-yl)oxy)pyridin-2-yl)carbamoyl)pivalamide]	10 to 100
100 to 1000	< 10	< 10	> 1000	< 10	Cn1cc(-c2cc(Oc3ccc(NC(=O)NC(=O)C4CCOC4)nc3)ccn2)cn1 (stereo not drawn) [Example 66, N-((5-((2-(1-methyl-1H-pyrazol-4-yl)pyridin-4-yl)oxy)pyridin-2-yl)carbamoyl)tetrahydrofuran-3-carboxamide]	10 to 100
> 1000	< 10	10 to 100	> 1000	< 10	Cc1ccc(-c2cc(Oc3ccc(NC(=O)NC(=O)C(C)C)nc3C)ccn2)cn1 [Example 71, N-((6-methyl-5-((6′-methyl-[2,3′-bipyridin]-4-yl)oxy)pyridin-2-yl)carbamoyl)isobutyramide]	10 to 100
> 1000	< 10	< 10	> 1000	10 to 100	COC(C)(C)C(=O)NC(=O)Nc1cc(C)c(Oc2ccnc(-n3cnc(C)c3)c2)cn1 [Example 164, 2-methoxy-2-methyl-N-((4-methyl-5-((2-(4-methyl-1H-imidazol-1-yl)pyridin-4-yl)oxy)pyridin-2-yl)carbamoyl)propanamide]	< 10
100 to 1000	< 10	< 10	> 1000	< 10	C=CCn1cc(-c2cc(Oc3ccc(NC(=O)NC(=O)C(C)(C)OC)nc3)ccn2)cn1 [Example 172, N-((5-((2-(1-allyl-1H-pyrazol-4-yl)pyridin-4-yl)oxy)pyridin-2-yl)carbamoyl)-2-methoxy-2-methylpropanamide]	10 to 100
> 1000	10 to 100	< 10	100 to 1000	10 to 100	Cc1ccc(-c2cc(Oc3ccc(NC(=O)NC(=O)C4CCOCC4)nc3)ccn2)cn1 [Example 103, N-((5-((6′-methyl-[2,3′-bipyridin]-4-yl)oxy)pyridin-2-yl)carbamoyl)tetrahydro-2H-pyran-4-carboxamide]	10 to 100
> 1000	10 to 100	10 to 100	> 1000	10 to 100	Cn1cc(-c2cc(Oc3cnc(NC(=O)NC(=O)C(C)(C)C)cn3)ccn2)cn1 [Example 176, N-((5-((2-(1-methyl-1H-pyrazol-4-yl)pyridin-4-yl)oxy)pyrazin-2-yl)carbamoyl)pivalamide]	> 1000
< 10	< 10	10 to 100	< 10	< 10	Cn1cc(-c2cc(Oc3ccc(NC(=O)NC(=O)C4CC5(CCC5)C4)nc3)ccn2)cn1 [Example 31, N-((5-((2-(1-methyl-1H-pyrazol-4-yl)pyridin-4-yl)oxy)pyridin-2-yl)carbamoyl)spiro[3.3]heptane-2-carboxamide]	< 10
> 1000	< 10	10 to 100	> 1000	10 to 100	CCOC(C)(C)C(=O)NC(=O)Nc1ccc(Oc2ccnc(-c3ccnc(C)c3)c2)cn1 [Example 161, 2-ethoxy-2-methyl-N-((5-((2′-methyl-[2,4′-bipyridin]-4-yl)oxy)pyridin-2-yl)carbamoyl)propanamide]	10 to 100
100 to 1000	< 10	10 to 100	10 to 100	10 to 100	Cn1cc(-c2cc(Oc3ccc(NC(=O)NC(=O)C(C)(C)C(F)(F)F)nc3)ccn2)cn1 [Example 35, 3,3,3-trifluoro-2,2-dimethyl-N-((5-((2-(1-methyl-1H-pyrazol-4-yl)pyridin-4-yl)oxy)pyridin-2-yl)carbamoyl)propanamide]	10 to 100
> 1000	10 to 100	10 to 100	100 to 1000	10 to 100	Cc1ncc(-c2cc(Oc3ccc(NC(=O)NC(=O)C4(C)CCOCC4)nc3)ccn2)s1 [Example 158, 4-methyl-N-((5-((2-(2-methylthiazol-5-yl)pyridin-4-yl)oxy)pyridin-2-yl)carbamoyl)tetrahydro-2H-pyran-4-carboxamide]	10 to 100
> 1000	< 10	< 10	100 to 1000	< 10	COC(C)(C)C(=O)NC(=O)Nc1ccc(Oc2ccnc(-c3ccc(C)nc3)c2)cn1 [Example 72, 2-methoxy-2-methyl-N-((5-((6′-methyl-[2,3′-bipyridin]-4-yl)oxy)pyridin-2-yl)carbamoyl)propanamide]	10 to 100
> 1000	10 to 100	< 10	> 1000	10 to 100	COC(C)(C)C(=O)NC(=O)Nc1ccc(Oc2ccnc(-c3cnc(C(C)C)[nH]3)c2)cn1 [Example 173, N-((5-((2-(2-isopropyl-1H-imidazol-5-yl)pyridin-4-yl)oxy)pyridin-2-yl)carbamoyl)-2-methoxy-2-methylpropanamide]	10 to 100
